Consider five compounds from ChEMBL document CHEMBL1137214, “11beta-alkyl-Delta9-19-nortestosterone derivatives: high-affinity ligands and potent partial agonists of the androgen receptor” (J Med Chem, 2004).

Test [1] has as its target T1, Glucocorticoid receptor (Homo sapiens, UniProt P04150).
T1 sequence (P04150 whole entry): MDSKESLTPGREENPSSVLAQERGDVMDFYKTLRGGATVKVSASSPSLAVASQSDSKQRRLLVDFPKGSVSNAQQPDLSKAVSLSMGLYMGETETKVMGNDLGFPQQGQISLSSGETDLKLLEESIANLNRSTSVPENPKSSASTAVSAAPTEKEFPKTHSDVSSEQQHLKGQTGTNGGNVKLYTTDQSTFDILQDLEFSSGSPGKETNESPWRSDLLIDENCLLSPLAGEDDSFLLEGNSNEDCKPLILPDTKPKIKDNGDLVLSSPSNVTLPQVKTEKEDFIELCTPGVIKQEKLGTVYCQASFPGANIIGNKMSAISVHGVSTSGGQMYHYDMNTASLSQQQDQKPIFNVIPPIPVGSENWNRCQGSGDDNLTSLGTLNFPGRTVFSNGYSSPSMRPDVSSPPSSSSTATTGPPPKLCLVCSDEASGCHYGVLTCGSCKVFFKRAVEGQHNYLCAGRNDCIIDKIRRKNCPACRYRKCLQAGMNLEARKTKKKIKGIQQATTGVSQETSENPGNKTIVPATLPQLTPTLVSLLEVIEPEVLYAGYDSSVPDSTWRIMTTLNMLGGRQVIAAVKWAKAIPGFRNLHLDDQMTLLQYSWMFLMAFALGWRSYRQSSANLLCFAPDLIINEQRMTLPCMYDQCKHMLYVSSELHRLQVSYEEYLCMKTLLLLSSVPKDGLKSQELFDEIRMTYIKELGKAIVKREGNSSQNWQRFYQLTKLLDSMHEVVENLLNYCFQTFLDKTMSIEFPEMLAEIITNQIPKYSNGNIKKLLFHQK
The test can be described thus: Inhibition of CHO-K1 cells expressing glucocorticoid receptor. It is filed as cell-based.

Test [2] deals with T2, Androgen receptor (Homo sapiens, UniProt P10275).
T2 sequence (P10275 whole entry): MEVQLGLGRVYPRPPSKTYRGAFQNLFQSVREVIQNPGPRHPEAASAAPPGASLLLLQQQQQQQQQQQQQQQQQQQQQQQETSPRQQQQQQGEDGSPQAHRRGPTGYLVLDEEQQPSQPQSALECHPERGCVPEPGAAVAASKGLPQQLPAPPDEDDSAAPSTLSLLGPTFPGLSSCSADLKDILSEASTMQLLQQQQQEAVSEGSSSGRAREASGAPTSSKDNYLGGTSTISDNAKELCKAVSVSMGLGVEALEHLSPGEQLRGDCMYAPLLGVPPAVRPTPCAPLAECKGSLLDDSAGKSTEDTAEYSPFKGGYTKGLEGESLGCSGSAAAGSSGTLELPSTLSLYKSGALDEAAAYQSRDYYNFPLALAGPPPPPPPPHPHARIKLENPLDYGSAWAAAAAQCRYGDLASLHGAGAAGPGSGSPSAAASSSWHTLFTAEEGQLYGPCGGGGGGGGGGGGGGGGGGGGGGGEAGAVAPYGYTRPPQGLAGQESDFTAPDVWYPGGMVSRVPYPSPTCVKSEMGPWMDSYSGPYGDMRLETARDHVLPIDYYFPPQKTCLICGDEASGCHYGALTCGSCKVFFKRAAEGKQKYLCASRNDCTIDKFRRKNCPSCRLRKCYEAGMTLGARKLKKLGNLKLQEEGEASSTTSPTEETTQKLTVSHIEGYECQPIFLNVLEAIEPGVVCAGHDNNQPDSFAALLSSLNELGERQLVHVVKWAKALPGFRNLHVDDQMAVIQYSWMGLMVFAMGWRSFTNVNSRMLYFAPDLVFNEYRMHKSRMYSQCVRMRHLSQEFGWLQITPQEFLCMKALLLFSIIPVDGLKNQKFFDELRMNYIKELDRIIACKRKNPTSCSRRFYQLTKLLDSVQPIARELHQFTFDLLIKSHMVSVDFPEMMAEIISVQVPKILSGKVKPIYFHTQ
Briefly: Inhibition of AR-dimerization in CHO-K1 cells expressing human androgen receptor.

Test [3] has as its target T2, Androgen receptor. The test can be described thus: Inhibition of human androgen receptor expressed in Escherichia coli.

The IC50 is the concentration that inhibits the measured activity by half. High values mean lower potency, low ones higher potency.

Consider `CCCCCCCCCC[C@H]1C[C@@]2(C)C(CC[C@@H]2O)C2CCC3=CC(=O)CCC3=C21` (stereo partly drawn), for which the IC50 in test [1] came to 1810 nM; in test [2], 85 nM; in test [3] it was 0.8 nM.
On the same counts, the results for `CCCCC[C@H]1C[C@@]2(C)C(CC[C@@H]2O)C2CCC3=CC(=O)CCC3=C21` (stereo partly drawn) are 125 nM, 0.009 nM and 0.1 nM.
With `CC[C@H]1C[C@@]2(C)C(CC[C@@H]2O)C2CCC3=CC(=O)CCC3=C21` (stereo partly drawn), the IC50 was found to be 1290 nM in test [1] and 2 nM in test [3].
On the same counts, the results for `CCCCCCCCCCCC[C@H]1C[C@@]2(C)C(CC[C@@H]2O)C2CCC3=CC(=O)CCC3=C21` (stereo partly drawn) are 870 nM and 0.2 nM.
Take `CCCCCCCC[C@H]1C[C@@]2(C)C(CC[C@@H]2O)C2CCC3=CC(=O)CCC3=C21` (stereo partly drawn): the IC50 in test [1] was determined as 979 nM; in test [2], 0.9 nM; in test [3], 6.6 nM.
